Broadly, the IC50 is the concentration at which inhibition is half-maximal. High values mean weaker potency in that assay, low ones greater potency in that assay.

Structures are written as SMILES. Counter-ions that a name gives are not always drawn.

The assay deals with T1, Phospho-EGFR in H1975 cell line (Homo sapiens, UniProt P00533, L858R/T790M).
T1 construct: H1975 cell line was obtained from American Type Culture Collection; host or cells: H1975
T1 sequence (P00533 25-1210 T790M/L858R): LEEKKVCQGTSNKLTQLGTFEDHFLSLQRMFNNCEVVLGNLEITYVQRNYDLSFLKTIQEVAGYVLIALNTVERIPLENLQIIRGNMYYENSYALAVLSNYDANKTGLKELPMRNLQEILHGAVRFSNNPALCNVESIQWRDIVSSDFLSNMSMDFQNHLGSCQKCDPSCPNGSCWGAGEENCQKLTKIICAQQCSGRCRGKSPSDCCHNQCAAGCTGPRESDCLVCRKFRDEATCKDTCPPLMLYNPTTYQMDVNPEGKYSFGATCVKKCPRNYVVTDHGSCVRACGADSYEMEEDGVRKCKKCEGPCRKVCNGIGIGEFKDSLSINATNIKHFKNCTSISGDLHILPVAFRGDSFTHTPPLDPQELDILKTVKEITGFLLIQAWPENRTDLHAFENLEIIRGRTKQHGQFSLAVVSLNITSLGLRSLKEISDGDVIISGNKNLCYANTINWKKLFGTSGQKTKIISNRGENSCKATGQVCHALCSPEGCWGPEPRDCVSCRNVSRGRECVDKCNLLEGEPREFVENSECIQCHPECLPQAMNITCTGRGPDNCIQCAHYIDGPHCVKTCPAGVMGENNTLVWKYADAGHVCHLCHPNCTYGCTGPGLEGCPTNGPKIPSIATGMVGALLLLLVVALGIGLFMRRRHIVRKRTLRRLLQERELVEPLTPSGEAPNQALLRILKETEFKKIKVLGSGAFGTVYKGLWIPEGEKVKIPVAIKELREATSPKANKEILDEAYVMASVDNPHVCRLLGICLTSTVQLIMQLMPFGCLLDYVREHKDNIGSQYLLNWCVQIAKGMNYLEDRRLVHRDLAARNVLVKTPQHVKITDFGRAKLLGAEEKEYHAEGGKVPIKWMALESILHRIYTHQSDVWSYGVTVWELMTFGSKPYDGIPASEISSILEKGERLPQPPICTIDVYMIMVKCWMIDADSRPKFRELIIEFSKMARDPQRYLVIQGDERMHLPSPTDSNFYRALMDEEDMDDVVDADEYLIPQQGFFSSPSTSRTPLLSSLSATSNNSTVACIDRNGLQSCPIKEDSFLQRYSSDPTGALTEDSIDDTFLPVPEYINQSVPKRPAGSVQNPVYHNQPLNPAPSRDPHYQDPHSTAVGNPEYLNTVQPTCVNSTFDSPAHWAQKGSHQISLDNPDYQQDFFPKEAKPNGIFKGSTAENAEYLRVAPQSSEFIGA
Description: HTRF Phospo EGFR Assay (Cellular). The assay is classed as cell-based. As to conditions: H1975 cells; 6 hours compound incubation in starving medium; HTRF anti-Phospho-EGFR readout. On the procedure:
HTRF Phospo EGFR Assay (Cellular)
H1975 cell line was obtained from American Type Culture Collection (Manassas, Va., USA). Cells were maintained at 37° C., 5% CO2 in complete Media RPMI 1640 without phenol red containing 0.3 mg/ml glutamine, 100 IU/ml penicillin, and […] (Gibco) supplemented with 10% fetal bovine serum (FBS) (Gibco). Compounds were diluted into starving medium RPMI 1640 Media without phenol red containing 0.3 mg/ml glutamine, 100 IU/ml penicillin, and […] (Gibco).
Cells were cultured overnight in a 384-well white plate (8000 cells/well) using 8 μl of complete medium/well. Cells were washed two times with 20 μl of starving medium. Media was removed by tapping plates on tissue and subsequently 8 μl of fresh starving medium/well was added. Then 4 μl/well of the 3×compound solution, containing a half-log dilution series of the compound or DMSO in starving medium, were added to the cells. After 6 hours at 37° C., 5% CO2 cells were lysed by adding to the compound mix 4 μl/well of the supplemented lysis buffer, followed by incubation for 30 min at room temperature with shaking. Lysates were stored at −20° C. overnight. The following day plates were thawed and 2 μl of anti-Phospho-EGFR Cryptate and 2 μl of anti-Phospho-EGFR-d2 antibody solutions prepared in the detection buffer were added. The plates were then incubated for at least 4 h at room temperature before reading the fluorescence emission at 620 and 665 nm using PHERAstar FX plate reader (BMG Labtech).
For orientation: In TR-FRET formats the signal depends on donor and acceptor labels being close together.
With `Nc1ccc(C#Cc2ccc3c(c2)C(=O)N(C(C(=O)Nc2ccccn2)c2cc(F)ccc2O)C3)cn1` (racemic) [Example 20, (2RS)-2-[6-[2-(6-Amino-3-pyridyl)ethynyl]-1-oxo-isoindolin-2-yl]-2-(5-fluoro-2-hydroxy-phenyl)-N-(2-pyridyl)acetamide], the IC50 stood at 4 nM.

Molecule `O=C(Nc1nccs1)C(c1cc(F)ccc1O)N1Cc2ccc(C#Cc3cccnc3)cc2C1=O` (racemic) [Example 16, (2RS)-2-(5-Fluoro-2-hydroxy-phenyl)-2-[1-oxo-6-[2-(3-pyridyl)ethynyl]isoindolin-2-yl]-N-thiazol-2-yl-acetamide] came in with an IC50 of 1 nM.

Take `Cc1c(C#Cc2ccc(N)nc2)ccc2c1C(=O)N(C(C(=O)Nc1nccs1)c1cc(F)ccc1O)C2` (racemic) [Example 21, (2RS)-2-[6-[2-(6-Amino-3-pyridyl)ethynyl]-7-methyl-1-oxo-isoindolin-2-yl]-2-(5-fluoro-2-hydroxy-phenyl)-N-thiazol-2-yl-acetamide]: the half-inhibitory concentration (IC50) worked out at 3 nM.

Turning to `O=C(Nc1nccs1)C(c1ccccc1)N1Cc2ccc(C#Cc3ccc(CN4CCNCC4)cc3)cc2C1=O` (racemic) [Example 10, (2RS)-2-[1-Oxo-6-[2-[4-(piperazin-1-ylmethyl)phenyl]ethynyl]isoindolin-2-yl]-2-phenyl-N-thiazol-2-yl-acetamide hydrochloride], the IC50 turned out to be 43 nM.

For the molecule `O=C(Nc1nccs1)C(c1ccccc1)N1Cc2ccc(C#Cc3cccnc3)cc2C1=O` (racemic) [Example 2, (2RS)-2-[1-oxo-6-[2-(3-pyridyl)ethynyl]isoindolin-2-yl]-2-phenyl-N-thiazol-2-yl-acetamide], the half-maximal inhibitory concentration (IC50) worked out at 42 nM.

Source of the values: patent US11117890B2, “Substituted isoindole allosteric EGFR inhibitors” (Hoffmann-La Roche Inc., priority 2017, dated 2021).
